Source: paper PMC8778818, “Synthesis, Structural Characterization and Anticancer Activity of New 5-Trifluoromethyl-2-thioxo-thiazolo[4,5-d]pyrimidine Derivatives” (Pharmaceuticals, 2022)

What was measured:
[1] = test system: T-47D; assay: NCI-60 screen, Breast Cancer T-47D; format: cell-based; details: T-47D, 10^−5 M one dose
[2] = test system: C32; assay: MTT cell viability assay, C32; format: cell-based, human; details: Homo sapiens; C32, MTT, 72 h, mean ± SD
Experimental: (§1) Twelve compounds (2a-e, 3a-d and 4a-c) at a concentration range of 50–5000 μM were tested for their antiproliferative potential against four human cancer cell lines (A375—melanotic melanoma, C32—amelanotic melanoma, DU145—prostate cancer androgen-independent, MCF-7/WT—breast adenocarcinoma) and two normal cell lines: Chinese Hamster Ovary (CHO-K1) and immortalized human keratinocytes from histologically normal skin (HaCaT).
(§2) To determine the antiproliferative activity of newly synthesized compounds, the following cell lines were used: human melanotic melanoma cell line (A375), human amelanotic melanoma cell line (C32), human breast adenocarcinoma cell line (MCF-7/WT), human prostate cancer androgen-independent (DU145) and two normal cell lines: hamster ovarian (CHO-K1) and immortalized human keratinocytes from histologically normal skin (HaCaT). The cells were obtained from the cell line bank of the Department of Molecular and Cellular Biology, Wroclaw Medical University. A375, C32, MCF-7/WT, DU145 and HaCaT cells were grown in a monolayer cultured in Dulbecco’s Modified Eagle’s Medium (DMEM, Sigma-Aldrich, Poznań, Poland), supplemented with 10% of fetal bovine serum (FBS, Gibco, Paisley, UK) and 1% of antibiotics (penicillin/streptomycin, Sigma-Aldrich) and CHO-K1 were grown in HAM’s F-12 medium (Sigma-Aldrich), supplemented with 10% fetal bovine serum (FBS, Gibco) and 1% of antibiotics (penicillin/streptomycin, Sigma-Aldrich). Cell lines were cultured in the polystyrene flasks 25 or 75 cm^2 (Thermo Fisher Scientific, Waltham, MA, USA), which were stored in 37 °C and 5% CO2 in a humidified 95% atmosphere (SteriCult, Thermo Scientific, Alab). The cell medium was exchanged twice a week. The exponentially growing cells were used throughout the experiments. The cells were rinsed with phosphate-buffered saline (PBS, Sigma-Aldrich) and trypsinized by Trypsin-EDTA 0.25% solution (Sigma-Aldrich).
(§3) The influence of the compounds was performed in a monolayer culture on cancer and normal cells. Compounds were initially dissolved in DMSO; further dilutions of the compound were performed in Dulbecco’s Modified Eagle’s Medium supplemented with 10% FBS. Compounds were tested in a 50–5000 µM concentration range. In the in vitro experiments, the concentrations of DMSO in the final solution of the compounds were used 0.05%; 0.1%; 0.5%; 1%, respectively.
(§4) Cell viability was determined using the MTT colorimetric assay. All cell lines were seeded into 96-well plates to a density of 3 × 10^4 cells/well. After 24 h, the culture supernatants were removed and appropriate dilutions of compounds in the culture medium (200 µL/well) were added to the cells’ monolayer cultures and incubated for an additional 72 h. After 72 h of exposition to the compounds and the removal of the culture medium, cell viability was determined by reducing the yellow dye 3-(4,5-dimethyl-2-thiazol)-2,5-diphenyl-2H-tetrazolium bromide (MTT assay, Sigma Saint Louis, MO, USA; In Vitro Toxicology Assay) to a blue formazan product. The absorbance of the resulting solutions in three duplicate experiments was measured at the wavelength of 560 nm in a microplate reader (EnSpire, Perkin Elmer, Kraków, Poland). MTT assay is a colorimetric method that estimates the rate of metabolism in viable cells. Absorbance is directly proportional to the number of viable cells. All the experiments were performed three times and the mean absorbance values were calculated. The methodology for the evaluation of the growth of human cancer and normal cells was described previously. The cell viability in each group was expressed as a percentage of control (untreated) cells.

[3] = test system: ACHN; assay: NCI-60 screen, Renal Cancer ACHN; format: cell-based, human; details: 10^−5 M one dose
[4] = test system: SR; assay: NCI-60 screen, Leukemia SR; format: cell-based, human; details: 10^−5 M one dose
[5] = test system: NCI-H460; assay: NCI-60 screen, Non-Small Cell Lung Cancer NCI-H460; format: cell-based, human; details: NCI-H460, 10^−5 M one dose
[6] = test system: HaCaT; assay: MTT cell viability assay, HaCaT; format: cell-based, human; details: Homo sapiens; HaCaT normal cells, MTT, 72 h, mean ± SD
Experimental: as §1, §2, §3, §4

[7] = test system: UO-31; assay: NCI-60 screen, Renal Cancer UO-31; format: cell-based; details: UO-31, 10^−5 M one dose
[8] = test system: 786-0; assay: NCI-60 screen, Renal Cancer 786-0; format: cell-based; details: 786-0, 10^−5 M one dose
[9] = test system: MCF7; assay: NCI-60 screen, Breast Cancer MCF7; format: cell-based, human; details: MCF7, 10^−5 M one dose
[10] = test system: SF-268; assay: NCI-60 screen, CNS Cancer SF-268; format: cell-based, human; details: SF-268, 10^−5 M one dose
[11] = test system: HCT-116; assay: NCI-60 screen, Colon Cancer HCT-116; format: cell-based, human; details: HCT-116, 10^−5 M one dose
[12] = test system: MOLT-4; assay: NCI-60 screen, Leukemia MOLT-4; format: cell-based, human; details: MOLT-4, 10^−5 M one dose
[13] = test system: CHO-K1; assay: MTT cell viability assay, CHO-K1; format: cell-based, Chinese Hamster; details: Cricetulus griseus; CHO-K1 normal cells, MTT, 72 h, mean ± SD
Experimental: as §1, §2, §3, §4

[14] = test system: A375; assay: MTT cell viability assay, A375; format: cell-based, human; details: Homo sapiens, A-375, 72 h, A375, MTT, mean ± SD
Experimental: as §1, §2, §3, §4

[15] = test system: KM12; assay: NCI-60 screen, Colon Cancer KM12; format: cell-based, human; details: KM12, 10^−5 M one dose
[16] = test system: MCF-7/WT; assay: MTT cell viability assay, MCF-7/WT; format: cell-based; details: Homo sapiens, MCF7, 72 h, mean ± SD
Experimental: as §1, §2, §3, §4

[17] = test system: HS 578T; assay: NCI-60 screen, Breast Cancer HS 578T; format: cell-based, human; details: 10^−5 M one dose
[18] = test system: SK-MEL-28; assay: NCI-60 screen, Melanoma SK-MEL-28; format: cell-based; details: SK-MEL-28, 10^−5 M one dose
[19] = test system: A549/ATCC; assay: NCI-60 screen, Non-Small Cell Lung Cancer A549/ATCC; format: cell-based, human; details: 10^−5 M one dose
[20] = test system: UACC-62; assay: NCI-60 screen, Melanoma UACC-62; format: cell-based, human; details: UACC-62, 10^−5 M one dose
[21] = test system: SN12C; assay: NCI-60 screen, Renal Cancer SN12C; format: cell-based; details: 10^−5 M one dose

## O=c1[nH]c(C(F)(F)F)nc2c1sc(=S)n2-c1ccccc1 [Compound 2b, 3-phenyl-2-thioxo-5-(trifluoromethyl)-2,3-dihydro[1, 3]thiazolo[4,5-d]pyrimidin-7(6H)-one]
[1]
  Growth of Cells (%): 108.41%
[2]
  IC50: 496 ± 20.4 µM
[3]
  Growth of Cells (%): 110.42%
[4]
  Growth of Cells (%): 105.93%
[5]
  Growth of Cells (%): 123.50%
[6]
  IC50: 712 ± 29.3 µM
[7]
  Growth of Cells (%): 91.22%
[8]
  Growth of Cells (%): 104.97%
[9]
  Growth of Cells (%): 111.19%
[10]
  Growth of Cells (%): 101.77%
[11]
  Growth of Cells (%): 102.27%
[12]
  Growth of Cells (%): 117.56%
[13]
  IC50: 319 ± 13.1 µM
[14]
  IC50: 367 ± 15.1 µM
[15]
  Growth of Cells (%): 100.96%
[16]
  IC50: 557 ± 22.9 µM
[17]
  Growth of Cells (%): 65.01%
[18]
  Growth of Cells (%): 102.86%
[19]
  Growth of Cells (%): 103.88%
[20]
  Growth of Cells (%): 109.52%
[21]
  Growth of Cells (%): 106.95%
